The nature of data set [1]: Intracellular fraction of unbound compound (fu,cell), dialysis of cell homogenate. Conditions: dog, homogenate of MDCK cells transfected with human P-gp.
Data set [2] in a line: Intracellular compound accumulation (Kp) and intracellular bioavailability (Fic). It counts as in vitro ADME. To be noted: geometrical mean ± S.E.M.; for Kp at 45 min: freshly isolated human hepatocytes in suspension; for Kp at 24 h: human hepatocytes cultured for 24 h in monolayer format, Monolayer hepatocytes (human, 24 h culture). The method, then: where Kp is the ratio Ccell/Cmedium.
Hepatocytes were isolated from human liver tissue obtained from two donors undergoing surgical resections at the Department of Surgery, Uppsala University Hospital. […] Isolation was performed using a two-step collagenase procedure, as previously described.
For the corresponding experiments in human hepatocytes, two cell culture configurations were used: freshly isolated cells in suspension, or cells cultivated as monolayers for 24 h. The freshly isolated cells were suspended directly after isolation at a concentration of 5 × 10^6 cells/ml in HBSS. The cell suspension (100 μl) was added to 96-well plates, which were immediately used for accumulation experiments. […] After cell attachment, medium was replaced by hepatocyte maintenance medium (Lonza) supplemented with insulin (10 μg/ml), transferrin (5.5 μg/ml), selenium (5 ng/ml), penicillin (100 units/ml), streptomycin (100 μg/ml), and dexamethasone (0.1 μM). Cells were kept in maintenance medium for 24 h, until the start of the intracellular compound accumulation experiments.

For data set [3], the system named is P-gp. The description is as above. Conditions: dog, MDCK II wild-type cells.
Experimental: (§1) To determine intracellular unbound compound concentrations, we measured intracellular fraction of unbound compound (fu,cell) in parallel with total intracellular compound accumulation (Ccell), as described below. Intracellular compound bioavailability (Fic) was calculated as the ratio between intracellular unbound compound concentration (Cu,cell = fu,cell∙Ccell) (the concentration available to bind intracellular targets) and the externally added compound concentration (Cmedium):
(§2) HEK293 cells were grown for two days in 24-well plates, as previously described[25]. MDCK cells were grown for two days in 96-well plates, prior to the intracellular compound accumulation experiments. The growth media were the same as described in the section ‘Cell line maintenance’ without addition of hygromycin B to avoid transporter inhibition.
(§3) Intracellular compound accumulation at steady-state was measured essentially as described before[25]. Briefly, cells were washed twice with HBSS and incubated for 45 min with solutions of single test compounds (in HBSS) on an orbital shaker (300 rpm) at 37 °C. At the end of the experiment, the remaining extracellular compound solutions were collected and cells were washed twice with ice-cold phosphate-buffered saline pH 7.4 (PBS). For hepatocytes in suspension, the cells were separated from the extracellular solutions by centrifugation (100 × g for 5 min). Compounds were extracted from the cells using acetonitrile/water (60:40) spiked with 50 nM warfarin (internal standard). Extracellular medium samples were diluted 10-fold with the same extraction solution. […] Protein concentrations were measured in representative wells of the plates using the BCA Protein Assay Reagent Kit (Thermo Fisher Scientific Inc.).
(§4) The ratio between total compound concentrations in the cells and in the medium (Kp) was calculated according to:
(§5) where Acell is the amount of compound in the cell samples, Vcell is the cell volume (6.5 μL/mg protein[80]), and Cmedium is the compound concentration in the medium sample.
In data set [4] the test system is P-gp. Described as above. Conditions: dog, P-gp-transfected MDCK cells.
Experimental: as §1, §2, §3, §4, §5
The test system of data set [5] is OATP1B1. The description is as above. To be noted: human, OATP1B1-transfected HEK293 cells.
Experimental: as §1, §2, §3, §4, §5
Data set [6] concerns P-gp. The data set is described as above. To be noted: dog, P-gp-KO (CRISPR) MDCK cells.
Experimental: as §1, §2, §3, §4, §5
Data set [7] is described as follows: Intracellular fraction of unbound compound (fu,cell), dialysis of cell homogenate. Format: in vitro ADME. Conditions: human; OATP1B1-transfected HEK293 cell homogenate; geometrical mean ± S.E.M.; read-out: Cell binding (fu,cell). How it is done: For intracellular fraction of unbound compound experiments, cell lines or primary cells were suspended to a concentration of 10 × 10^6 cells/ml in Hank’s balanced salt solution (HBSS). Cell suspensions were homogenized for 10 s with a VCX-500 ultrasonic processor (Sonics & Materials) at 20% intensity and used immediately for binding experiments.
Binding to cell homogenates at steady-state was measured using dialysis as previously described. […] Briefly, the cell homogenate was spiked with six randomly-chosen compounds. Homogenates were dialyzed for 4 h using a Rapid Equilibrium Dialysis device (Thermo Fisher Scientific Inc.). At the end of the incubation, uniform sample matrices were obtained by addition of blank homogenate to samples from the buffer chamber, and by addition blank buffer to samples from the homogenate chamber. Dilutions of samples from the homogenate chambers (10-fold and 100-fold) were prepared. […] Compounds in the supernatant were analyzed by ultra-performance liquid chromatography coupled to tandem mass spectrometry (UPLC-MS/MS), as described below.
The fraction of compound that was not bound to cell homogenate (fu,hom) was calculated according to: […]
where PAbuffer is the peak area of compound in the buffer chamber and PAhom is the peak area of compound in the homogenate chamber, both corrected for the peak area of the internal standard in the respective chamber. For each compound, the dilution of the homogenate sample where PAhom was closest to PAbuffer was used.
The fraction of unbound compound in the cell (fu,cell) was calculated according to: […]

Data set [8] can be described thus: Intracellular compound accumulation (Kp) and intracellular bioavailability (Fic). To be noted: human, mock-transfected HEK293 cells.
Experimental: as §1, §2, §3, §4, §5
Data set [9] can be described thus: Intracellular fraction of unbound compound (fu,cell), dialysis of cell homogenate. It counts as in vitro ADME. Conditions: freshly isolated human hepatocyte homogenate; geometrical mean ± S.E.M.; read-out: fu,cell hepatocytes.
Experiment in data set [10]: as above
Conditions: human, mock-transfected HEK293 cell homogenate.

Data set [11] has as its system P-gp-transfected MDCK cells. The data set is described as follows: Intracellular compound accumulation (Kp) and intracellular bioavailability (Fic). Conditions: 0.5 μM; ratio cP-gp-KO/P-gp-transfected.
Experimental: as §1, §2, §3, §4, §5
For data set [12], the system named is P-gp. Further details: method as in earlier work. Conditions: dot = substrate; collated from literature ref 74, 75, 76; cited from earlier work.
On the set-up of data set [13]: method as in PMID 19785645. Conditions: human subjects; co-administration of cyclosporine A ref 58; cited from earlier work.
Data set [14] concerns OATP1B1. Conditions: dot = substrate; collated from literature ref 74, 75, 76; cited from earlier work.
Another data set relates to MDCK II wild-type cells. To be noted: dog.
For data set [15], the system named is OATP1B1-transfected HEK293 cells. Conditions: human.
Experimental: as §1, §2, §3, §4, §5
The test system of data set [16] is P-gp-KO (CRISPR) MDCK cells. To be noted: dog.
Experimental: as §1, §2, §3, §4, §5
Data set [17] relates to P-gp-transfected MDCK cells (+ elacridar). Conditions: dog, MDCK-MDR1.
Data set [18] in a line: in vitro. To be noted: human.
Data set [19] deals with P-gp. As to the kind of experiment: in vitro. To be noted: dog.
Experimental: as §1, §2, §3, §4, §5
In data set [20] the test system is P-gp-transfected MDCK cells. To be noted: dog.
Experimental: as §1, §2, §3, §4, §5
Data set [21] concerns mock-transfected HEK293 cells. Conditions: human.
Experimental: as §1, §2, §3, §4, §5
The nature of data set [22]: in vitro. Conditions: dog.
The test system of data set [23] is primary human hepatocytes. As to the kind of experiment: Metabolic clearance (CLint) in primary human hepatocytes. It counts as in vitro ADME. Conditions: 1 μM; freshly isolated human hepatocytes in suspension vs after 24 h in monolayer. How it is done: Metabolic clearance (CLint) was determined, as previously described. […] At time points 0, 10, 30, and 60 min, the reaction was stopped by addition of acetonitrile (200 μl) spiked with 50 nM warfarin (internal standard). […] CLint was calculated as the product of the compound disappearance rate and incubation volume, normalized by the cell number.

The structures appear in SMILES notation. “Also recorded” adds a separate entry of the source. Like-named read-outs stand apart in the source and are kept apart here.

Experimental for MDCK II wild-type cells: as §1, §2, §3, §4, §5

Consider `CN(CCOc1ccc(CC2SC(=O)NC2=O)cc1)c1ccccn1` (stereo not shown) [Rosiglitazone], for which the fraction unbound at 4 h in [1] was determined as 0.021 ± 0.003; in data set [7] it was 0.044 ± 0.001; in [9], 0.02 ± 0.006; in data set [10], 0.058 ± 0.004. Besides, the Kp at 45 min stood at 152 ± 12 in data set [2] and 38 ± 7 in the data set with P-gp [3]. In addition, the Kp at 24 h in data set [2] was 196 ± 17. Besides, the Kp at 45 min, 0.5 μM was 30 ± 4 in the data set with P-gp [4] and 67 ± 11 in the data set with P-gp [6]. Further, the Kp at 45 min, 0.1 μM in the data set on OATP1B1 [5] worked out at 15 ± 2; in data set [8], 19 ± 2.

As to `Cc1c(O)cccc1C(=O)N[C@@H](CSc1ccccc1)[C@H](O)CN1C[C@H]2CCCC[C@H]2C[C@H]1C(=O)NC(C)(C)C` [Nelfinavir], the fraction unbound at 4 h in data set [1] came out at 0.0001 ± 4e-05; in [7] it was 0.00044 ± 0.0001; in [10] it was 0.00039 ± 8e-05. Besides, in the data set with P-gp [3], the Kp at 45 min worked out at 494 ± 74. The Kp at 45 min, 0.5 μM was 53 ± 19 in the data set with P-gp [4] and 1080 ± 50 in the data set on P-gp [6]. In [11], the “Fic fold lower in P-gp-transfected than in cP-gp-KO MDCK cells” value came out at 20 fold. In addition, the P-gp substrate result with P-gp [12] was “●”. The figures for the Kp at 45 min, 0.1 μM (in the data set with OATP1B1 [5]; in data set [8]) were 652 ± 228 and 337 ± 113, respectively.

For the compound `O=C(O)C[C@H](O)C[C@H](O)/C=C/c1c(C2CC2)nc2ccccc2c1-c1ccc(F)cc1` [Pitavastatin], the fraction unbound at 4 h in data set [1] was determined as 0.023 ± 0.005; in data set [7] it was 0.025 ± 0.006; in data set [9] it was 0.017 ± 0.011; in data set [10] it was 0.023 ± 0.005. Further, the Kp at 45 min with P-gp [3] is 11. Besides, the Kp at 45 min, 0.5 μM in the data set with P-gp [4] is 11 ± 2; in the data set with P-gp [6], 13 ± 1. The P-gp substrate result in the data set with P-gp [12] is “●”. Also, the Kp at 45 min, 0.1 μM in the data set on OATP1B1 [5] was determined as 35 ± 3; in data set [8], 4.2 ± 0.3. For the same compound, the “increase of AUC by cyclosporine A” value in data set [13] was 5- to 15 fold. Also, the OATP1B1 substrate entry in the data set on OATP1B1 [14] is recorded as “●”.

Turning to `CN(C)C(=O)C(CCN1CCC(O)(c2ccc(Cl)cc2)CC1)(c1ccccc1)c1ccccc1` [Loperamide], the “intracellular bioavailability (Fic)” value was found to be 0.50±0.51 in the data set on MDCK II wild-type cells; 6.8±1.8 in data set [15]; 0.34±0.35 in data set [16]; 0.33±0.33 in data set [17]; 0.13±0.13 in data set [20]; 4.3±1.7 in [21]. For the same compound, the fraction unbound in “in vitro [18]” was determined as 0.0078 ± 0.0008; in “in vitro [22]”, 0.00051 ± 0.00051. Also, in the data set with P-gp [12], the P-gp substrate entry is “●”. Also, the Kp in the data set with P-gp [19] is 987 ± 198.

As for `COc1ccc(CCN2CCC(Nc3nc4ccccc4n3Cc3ccc(F)cc3)CC2)cc1` [Astemizole], the Kp at 45 min in data set [2] came to 1990 ± 1090; with P-gp [3], 1680 ± 71. The Kp at 24 h in [2] was 1600 ± 308. Besides, the Kp at 45 min, 0.5 μM in the data set with P-gp [4] was 995 ± 94; in the data set with P-gp [6], 2010 ± 200. Also, the Kp at 45 min, 0.1 μM is 738 ± 576 in the data set on OATP1B1 [5] and 821 ± 253 in data set [8]. The fraction unbound at 4 h in [7] is 0.0013 ± 0.0004; in data set [9] it was 0.00036 ± 0.00012; in data set [10] it was 0.0018 ± 0.0006. In “in vitro [22]”, the fraction unbound was found to be 1e-05 ± 2e-05.

Take `CC(C)c1nc(CN(C)C(=O)N[C@H](C(=O)N[C@@H](Cc2ccccc2)C[C@H](O)[C@H](Cc2ccccc2)NC(=O)OCc2cncs2)C(C)C)cs1` [Ritonavir]: in data set [23], the “metabolic clearance (CLint), suspension vs monolayer hepatocytes” value is “higher rates; also recorded: reduced”. Moreover, in the data set with P-gp [12], the P-gp substrate entry is listed as “●”.

Regarding `CC(C)(C)NCC(O)COc1ccc(NC(=O)NC2CCCCC2)cc1` (stereo not shown) [Talinolol], the fraction unbound in the data set “in vitro [18]” came to 0.074 ± 0.003.

As to `CC(C)n1c(/C=C/C(O)CC(O)CC(=O)O)c(-c2ccc(F)cc2)c2ccccc21` (stereo not shown) [Fluvastatin], the fraction unbound at 4 h stood at 0.0099 ± 0.0026 in [1], 0.015 ± 0.001 in [7] and 0.017 ± 0.003 in [10]. For the same compound, the Kp at 45 min in the data set with P-gp [3] is 35 ± 5. Besides, the Kp at 45 min, 0.5 μM in the data set on P-gp [4] was 21 ± 2; in the data set with P-gp [6], 53 ± 4. The P-gp substrate result in the data set with P-gp [12] was “●”. The Kp at 45 min, 0.1 μM with OATP1B1 [5] is 94 ± 12; in data set [8] it was 45 ± 6. Further, in data set [13], the “increase of AUC by cyclosporine A” value is 3- to 4 fold. Besides, the OATP1B1 substrate entry in the data set on OATP1B1 [14] is “●”.

Take `COc1ccc2c(c1)c(CC(=O)O)c(C)n2C(=O)c1ccc(Cl)cc1` [Indomethacin]: the fraction unbound at 4 h in data set [1] amounted to 0.025 ± 0.005; in data set [7], 0.065 ± 0.004; in data set [9] it was 0.048 ± 0.012; in data set [10] it was 0.053 ± 0.006. Also, the Kp at 45 min in [2] stood at 50 ± 17; with P-gp [3], 22 ± 2. Also, the Kp at 24 h in data set [2] came out at 49 ± 4. Moreover, the results for the Kp at 45 min, 0.5 μM in the data set on P-gp [4] and in the data set with P-gp [6] were 18 ± 2 and 25 ± 2, respectively. The Kp at 45 min, 0.1 μM in the data set on OATP1B1 [5] was 14 ± 1; in [8] it was 13 ± 2.

The record behind these values is article PMC5320532, “Intracellular drug bioavailability: a new predictor of system dependent drug disposition” (Scientific Reports, 2017).
